In patent publication US12049450B2, “Pyridyloxy-carboxylate derivative and preparation method therefor, herbicidal composition, and use” (Qingdao Kingagroot Chemical Compound Co., Ltd., priority 2018, dated 2024):

Tests used:
Assay in all cases: Post-emergence test experiment (greenhouse pot, spray at 2-3 leaf stage)
Type in all cases: in vivo
Settings in all cases: 1000 g/ha; post-emergence spray at 2-3 leaf stage; assessed after 3 weeks; fresh weight inhibition rate
Echinochloa crusgalli = tested on: Echinochloa crusgalli
Description: (§1) The activity level standard of harmful plants destruction (i. e. growth inhibition rate) is as follows: • Level 5: the growth inhibition rate is greater than 85%; • Level 4: the growth inhibition rate is equal to or greater than 60% and less than 85%; • Level 3: the growth inhibition rate is equal to or greater than 40% and less than 60%; • Level 2: the growth inhibition rate is equal to or greater than 20% and less than 40%; • Level 1: the growth inhibition rate is equal to or greater than 5% and less than 20%; • Level 0: the growth inhibition rate is less than 5%;
(§2) The above described growth inhibition rate is fresh weight inhibition rate.
(§3) Post-emergence test experiment: Monocotyledonous and dicotyledonous weed seeds and main crop seeds (i. e. wheat, corn, rice, soybean, cotton, oilseed, millet and sorghum.) were put into a plastic pot loaded with soil. Then covered with 0.5-2 cm soil, the seeds were allowed to grow in good greenhouse environment. The test plants were treated at 2-3 leaf stage 2 weeks after sowing. The test compounds of the invention were dissolved with acetone respectively, then added with tween-80, and using 1.5 liters per hectare of an emulsible concentrate of methyl oleate as a synergist, and diluted by certain amount of water to certain concentration. The solution was sprayed to the plants with a sprayer. Then the plants were cultured for 3 weeks in the greenhouse, and the experiment result of weed controlling effect after 3 weeks was listed in tables 3-4.

Abutilon theophrasti = tested on: Abutilon theophrasti
Description: as §1, §2, §3

Digitaria sanguinalis = tested on: Digitaria sanguinalis
Description: as §1, §2, §3

Monochoria vaginalis = tested on: Monochoria vaginalis
Description: as §1, §2, §3

Galium spurium = tested on: Galium spurium
Description: as §1, §2, §3

In the case of CC(Oc1nc(F)c(Cl)c(N)c1Cl)C(=O)SCc1ccncc1 (stereo not drawn) [Compound 236], the “Activity level (growth inhibition rate) Echinochloa crusgalli” value (Echinochloa crusgalli) is reported as 5 (Level 5: the growth inhibition rate is greater than 85%), the “Activity level (growth inhibition rate) Abutilon theophrasti” value (Abutilon theophrasti) is reported as 5 (Level 5: the growth inhibition rate is greater than 85%) and the “Activity level (growth inhibition rate) Digitaria sanguinalis” value (Digitaria sanguinalis) is reported as 5 (Level 5: the growth inhibition rate is greater than 85%). For the same compound, the “Activity level (growth inhibition rate) Monochoria Vaginalis” value (Monochoria vaginalis) was 5 (Level 5: the growth inhibition rate is greater than 85%) and the “Activity level (growth inhibition rate) Galium spurium” value (Galium spurium) was 5 (Level 5: the growth inhibition rate is greater than 85%).
For CC(Oc1nc(F)c(Cl)c(N)c1Cl)C(=O)OCc1ncns1 (stereo not drawn) [Compound 167], the “Activity level (growth inhibition rate) Echinochloa crusgalli” value (Echinochloa crusgalli) was 5 (Level 5: the growth inhibition rate is greater than 85%), the “Activity level (growth inhibition rate) Abutilon theophrasti” value (Abutilon theophrasti) was 5 (Level 5: the growth inhibition rate is greater than 85%) and the “Activity level (growth inhibition rate) Digitaria sanguinalis” value (Digitaria sanguinalis) was 5 (Level 5: the growth inhibition rate is greater than 85%). For the same compound, the “Activity level (growth inhibition rate) Monochoria Vaginalis” value (Monochoria vaginalis) was 5 (Level 5: the growth inhibition rate is greater than 85%) and the “Activity level (growth inhibition rate) Galium spurium” value (Galium spurium) was 5 (Level 5: the growth inhibition rate is greater than 85%).
For CC(Oc1ncc(C(C)C)c(N)c1Cl)C(=O)OCc1ccccc1 (stereo not drawn) [Compound 9], the “Activity level (growth inhibition rate) Echinochloa crusgalli” value (Echinochloa crusgalli) was 5 (Level 5: the growth inhibition rate is greater than 85%), the “Activity level (growth inhibition rate) Abutilon theophrasti” value (Abutilon theophrasti) was 5 (Level 5: the growth inhibition rate is greater than 85%) and the “Activity level (growth inhibition rate) Digitaria sanguinalis” value (Digitaria sanguinalis) was 5 (Level 5: the growth inhibition rate is greater than 85%). The “Activity level (growth inhibition rate) Monochoria Vaginalis” value (Monochoria vaginalis) was 5 (Level 5: the growth inhibition rate is greater than 85%) and the “Activity level (growth inhibition rate) Galium spurium” value (Galium spurium) was 5 (Level 5: the growth inhibition rate is greater than 85%).
For CC(Oc1nc(F)c(Cl)c(N)c1Cl)C(=O)OCc1ccc2cnccc2c1 (stereo not drawn) [Compound 184], the “Activity level (growth inhibition rate) Echinochloa crusgalli” value (Echinochloa crusgalli) was 5 (Level 5: the growth inhibition rate is greater than 85%), the “Activity level (growth inhibition rate) Abutilon theophrasti” value (Abutilon theophrasti) was 5 (Level 5: the growth inhibition rate is greater than 85%) and the “Activity level (growth inhibition rate) Digitaria sanguinalis” value (Digitaria sanguinalis) was 5 (Level 5: the growth inhibition rate is greater than 85%). The “Activity level (growth inhibition rate) Monochoria Vaginalis” value (Monochoria vaginalis) was 5 (Level 5: the growth inhibition rate is greater than 85%) and the “Activity level (growth inhibition rate) Galium spurium” value (Galium spurium) was 5 (Level 5: the growth inhibition rate is greater than 85%).
In the case of CC(Oc1nc(F)c(Cl)c(N)c1Cl)C(=O)OCc1cccc(-c2cccnc2)c1 (racemic) [Compound 115], the “Activity level (growth inhibition rate) Echinochloa crusgalli” value (Echinochloa crusgalli) is reported as 5 (Level 5: the growth inhibition rate is greater than 85%), the “Activity level (growth inhibition rate) Abutilon theophrasti” value (Abutilon theophrasti) is reported as 5 (Level 5: the growth inhibition rate is greater than 85%) and the “Activity level (growth inhibition rate) Digitaria sanguinalis” value (Digitaria sanguinalis) is reported as 5 (Level 5: the growth inhibition rate is greater than 85%). For the same compound, the “Activity level (growth inhibition rate) Monochoria Vaginalis” value (Monochoria vaginalis) was 5 (Level 5: the growth inhibition rate is greater than 85%) and the “Activity level (growth inhibition rate) Galium spurium” value (Galium spurium) was 5 (Level 5: the growth inhibition rate is greater than 85%).
In the case of Cc1ccccc1COC(=O)C(C)Oc1nc(F)c(Cl)c(N)c1Cl (stereo not drawn) [Compound 69], the “Activity level (growth inhibition rate) Echinochloa crusgalli” value (Echinochloa crusgalli) is reported as 5 (Level 5: the growth inhibition rate is greater than 85%), the “Activity level (growth inhibition rate) Abutilon theophrasti” value (Abutilon theophrasti) is reported as 5 (Level 5: the growth inhibition rate is greater than 85%) and the “Activity level (growth inhibition rate) Digitaria sanguinalis” value (Digitaria sanguinalis) is reported as 5 (Level 5: the growth inhibition rate is greater than 85%). The “Activity level (growth inhibition rate) Monochoria Vaginalis” value (Monochoria vaginalis) was 5 (Level 5: the growth inhibition rate is greater than 85%) and the “Activity level (growth inhibition rate) Galium spurium” value (Galium spurium) was 5 (Level 5: the growth inhibition rate is greater than 85%).
For Nc1c(Cl)c(F)nc(OC(Br)C(=O)SCc2ccccc2)c1Cl (stereo not drawn) [Compound 36], the “Activity level (growth inhibition rate) Abutilon theophrasti” value (Abutilon theophrasti) was 5 (Level 5: the growth inhibition rate is greater than 85%), the “Activity level (growth inhibition rate) Monochoria Vaginalis” value (Monochoria vaginalis) was 5 (Level 5: the growth inhibition rate is greater than 85%) and the “Activity level (growth inhibition rate) Galium spurium” value (Galium spurium) was 5 (Level 5: the growth inhibition rate is greater than 85%).
For COC(C)C(Oc1nc(F)c(Cl)c(N)c1Cl)C(=O)OCc1ccccc1 (stereo not drawn) [Compound 31], the “Activity level (growth inhibition rate) Abutilon theophrasti” value (Abutilon theophrasti) was 5 (Level 5: the growth inhibition rate is greater than 85%), the “Activity level (growth inhibition rate) Monochoria Vaginalis” value (Monochoria vaginalis) was 5 (Level 5: the growth inhibition rate is greater than 85%) and the “Activity level (growth inhibition rate) Galium spurium” value (Galium spurium) was 5 (Level 5: the growth inhibition rate is greater than 85%).
In the case of Nc1c(Cl)c(F)nc(OC(C(=O)OCc2ccccc2)c2ccccc2)c1Cl (stereo not drawn) [Compound 60], the “Activity level (growth inhibition rate) Abutilon theophrasti” value (Abutilon theophrasti) is reported as 5 (Level 5: the growth inhibition rate is greater than 85%), the “Activity level (growth inhibition rate) Monochoria Vaginalis” value (Monochoria vaginalis) is reported as 5 (Level 5: the growth inhibition rate is greater than 85%) and the “Activity level (growth inhibition rate) Galium spurium” value (Galium spurium) is reported as 5 (Level 5: the growth inhibition rate is greater than 85%).
In the case of CSC(Oc1nc(F)c(Cl)c(N)c1Cl)C(=O)OCc1ccccc1 (stereo not drawn) [Compound 47], the “Activity level (growth inhibition rate) Abutilon theophrasti” value (Abutilon theophrasti) is reported as 5 (Level 5: the growth inhibition rate is greater than 85%), the “Activity level (growth inhibition rate) Monochoria Vaginalis” value (Monochoria vaginalis) is reported as 5 (Level 5: the growth inhibition rate is greater than 85%) and the “Activity level (growth inhibition rate) Galium spurium” value (Galium spurium) is reported as 5 (Level 5: the growth inhibition rate is greater than 85%).
COc1ccc(C(Oc2nc(F)c(Cl)c(N)c2Cl)C(=O)OCc2ccccc2)c(C)c1 (stereo not drawn) [Compound 63] was tested, and the “Activity level (growth inhibition rate) Abutilon theophrasti” value (Abutilon theophrasti) was 5 (Level 5: the growth inhibition rate is greater than 85%), the “Activity level (growth inhibition rate) Monochoria Vaginalis” value (Monochoria vaginalis) was 5 (Level 5: the growth inhibition rate is greater than 85%) and the “Activity level (growth inhibition rate) Galium spurium” value (Galium spurium) was 5 (Level 5: the growth inhibition rate is greater than 85%).
In the case of Nc1c(Cl)c(F)nc(OC(F)C(=O)OCc2ccccc2)c1Cl (stereo not drawn) [Compound 34], the “Activity level (growth inhibition rate) Abutilon theophrasti” value (Abutilon theophrasti) is reported as 5 (Level 5: the growth inhibition rate is greater than 85%), the “Activity level (growth inhibition rate) Monochoria Vaginalis” value (Monochoria vaginalis) is reported as 5 (Level 5: the growth inhibition rate is greater than 85%) and the “Activity level (growth inhibition rate) Galium spurium” value (Galium spurium) is reported as 5 (Level 5: the growth inhibition rate is greater than 85%).
In the case of Nc1c(Cl)c(F)nc(OC(CCl)C(=O)OCc2ccccc2)c1Cl (stereo not drawn) [Compound 37], the “Activity level (growth inhibition rate) Abutilon theophrasti” value (Abutilon theophrasti) is reported as 5 (Level 5: the growth inhibition rate is greater than 85%), the “Activity level (growth inhibition rate) Monochoria Vaginalis” value (Monochoria vaginalis) is reported as 5 (Level 5: the growth inhibition rate is greater than 85%) and the “Activity level (growth inhibition rate) Galium spurium” value (Galium spurium) is reported as 5 (Level 5: the growth inhibition rate is greater than 85%).
CCn1nccc1C(Oc1nc(F)c(Cl)c(N)c1Cl)C(=O)OCc1ccccc1 (stereo not drawn) [Compound 57] was tested, and the “Activity level (growth inhibition rate) Abutilon theophrasti” value (Abutilon theophrasti) was 5 (Level 5: the growth inhibition rate is greater than 85%), the “Activity level (growth inhibition rate) Monochoria Vaginalis” value (Monochoria vaginalis) was 5 (Level 5: the growth inhibition rate is greater than 85%) and the “Activity level (growth inhibition rate) Galium spurium” value (Galium spurium) was 5 (Level 5: the growth inhibition rate is greater than 85%).
In the case of Nc1c(Cl)c(F)nc(OC(C(=O)OCc2ccccc2)c2cscn2)c1Cl (stereo not drawn) [Compound 56], the “Activity level (growth inhibition rate) Abutilon theophrasti” value (Abutilon theophrasti) is reported as 5 (Level 5: the growth inhibition rate is greater than 85%), the “Activity level (growth inhibition rate) Monochoria Vaginalis” value (Monochoria vaginalis) is reported as 5 (Level 5: the growth inhibition rate is greater than 85%) and the “Activity level (growth inhibition rate) Galium spurium” value (Galium spurium) is reported as 5 (Level 5: the growth inhibition rate is greater than 85%).
For Nc1c(Cl)c(F)nc(OC(C(=O)OCc2ccccc2)C(F)F)c1Cl (stereo not drawn) [Compound 39], the “Activity level (growth inhibition rate) Abutilon theophrasti” value (Abutilon theophrasti) was 5 (Level 5: the growth inhibition rate is greater than 85%), the “Activity level (growth inhibition rate) Monochoria Vaginalis” value (Monochoria vaginalis) was 5 (Level 5: the growth inhibition rate is greater than 85%) and the “Activity level (growth inhibition rate) Galium spurium” value (Galium spurium) was 5 (Level 5: the growth inhibition rate is greater than 85%).
Nc1c(Cl)c(F)nc(OC(C(=O)SCc2ccccc2)c2cncnc2)c1Cl (stereo not drawn) [Compound 65] was tested, and the “Activity level (growth inhibition rate) Abutilon theophrasti” value (Abutilon theophrasti) was 5 (Level 5: the growth inhibition rate is greater than 85%), the “Activity level (growth inhibition rate) Monochoria Vaginalis” value (Monochoria vaginalis) was 5 (Level 5: the growth inhibition rate is greater than 85%) and the “Activity level (growth inhibition rate) Galium spurium” value (Galium spurium) was 5 (Level 5: the growth inhibition rate is greater than 85%).
With Nc1c(Cl)c(F)nc(OC(CC(F)(F)F)C(=O)SCc2ccccc2)c1Cl (stereo not drawn) [Compound 42] the “Activity level (growth inhibition rate) Abutilon theophrasti” value (Abutilon theophrasti) was 5 (Level 5: the growth inhibition rate is greater than 85%), the “Activity level (growth inhibition rate) Monochoria Vaginalis” value (Monochoria vaginalis) was 5 (Level 5: the growth inhibition rate is greater than 85%) and the “Activity level (growth inhibition rate) Galium spurium” value (Galium spurium) was 5 (Level 5: the growth inhibition rate is greater than 85%).
